The results in this text go back to ChEMBL document CHEMBL1142315, “In silico screening and biological evaluation of inhibitors of Src-SH3 domain interaction with a proline-rich ligand” (Bioorg Med Chem Lett, 2008).

Assay [1] has as its target Proto-oncogene tyrosine-protein kinase Src (Homo sapiens) (UniProt P12931). As to the kind of experiment: Inhibition of interaction between human Src-SH3 domain and PRP2 at 800 uM by fluorescence polarization technique.
Assay [2] has the same target. Briefly: Inhibition of interaction between human Src-SH3 domain and PRP2 at 100 uM by fluorescence polarization technique. (Polarisation of emitted light reports the rotation of a fluorescent probe.)

The source made the active and inactive calls. No cut-off for these calls is given here.

Proto-oncogene tyrosine-protein kinase Src (Homo sapiens), sequence (P12931 2-536 limits assumed): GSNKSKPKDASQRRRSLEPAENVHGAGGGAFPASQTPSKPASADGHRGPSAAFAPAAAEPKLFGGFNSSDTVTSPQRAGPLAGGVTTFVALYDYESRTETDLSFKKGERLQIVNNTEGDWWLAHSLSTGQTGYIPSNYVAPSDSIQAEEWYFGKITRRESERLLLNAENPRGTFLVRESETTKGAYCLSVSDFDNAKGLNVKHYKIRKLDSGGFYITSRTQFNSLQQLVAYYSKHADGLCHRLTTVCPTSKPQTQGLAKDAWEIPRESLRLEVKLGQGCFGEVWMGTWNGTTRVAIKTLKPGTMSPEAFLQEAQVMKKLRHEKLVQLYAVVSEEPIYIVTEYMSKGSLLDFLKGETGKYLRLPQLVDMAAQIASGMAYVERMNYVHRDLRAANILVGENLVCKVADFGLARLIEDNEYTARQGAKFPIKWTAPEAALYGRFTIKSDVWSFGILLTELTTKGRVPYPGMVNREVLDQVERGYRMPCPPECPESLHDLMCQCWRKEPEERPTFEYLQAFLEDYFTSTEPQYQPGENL

For `Cc1cc(NCCNc2ccc3c(c2)OCCO3)c2ccc3ccccc3c2n1`, the result in assay [1] was Active.

Take `COc1ccc(NCCNc2cc(C)nc3c2ccc2ccccc23)cc1OC`: the result in assay [1] was Active. The inhibition (in general, the percentage by which the read-out fell short of the control) in assay [2] was 22%.
